The numbers were not newly measured in patent US20220090193A1, “ATTACHING NUCLEOTIDES TO A POLYNUCLEOTIDE WITH A POLYMERASE” (priority 2019, published 2022), which cites them from elsewhere.

The term pKa denotes the negative logarithm of the acid dissociation constant.

The conditions of this data set: amino acid side chain.

Turning to `NCCCC[C@H](N)C(=O)O` [Lysine], the pKa is on record as 10.54.
